In brackets after ≈: the same amount, converted by molar mass. Where two headings read alike, the source gives them in different places.
Columns and labels:
brine shrimp = format: in vivo; conditions: for % BL (brine shrimp lethality): at 100 μg/ml
Procedure: The general in vitro toxicity of these compounds can be tested using the Brine Shrimp Lethality assay, as described in Mclaughlin, J. L. in Methods in Plant Biochemistry. Ed. K. Hostettmann, Academic Press, London, 1991; Vol. 6, pp. 1-32. Typically, candidate compounds are diluted in seawater to a suitable concentration and added to second instar larvae of Artemia salina. After a suitable period of time, for example 24 hours, the survivors are counted. In vitro acute toxicity testing of a compound of Formula I can also be performed using mammalian cell lines (see, for example, Ekwall, B., Ann. N.Y. Acad. Sci., (1983) 407:64-77). Selection of an appropriate cell line is dependent on the potential application of the candidate compound and can be readily determined by one skilled in the art.
To test the general toxicity of these compounds, Brine Shrimp Lethality assay was carried out according to Mclaughlin, J. L. in Methods in Plant Biochemistry. Ed. K. Hostettmann, Academic Press, London, 1991; Vol. 6, pp. 1-32. The compounds were tested at 100 μg/ml.

[1] = system: Cryptococcus neoformans (ATCC32045); experiment: Broth dilution anti-fungal susceptibility (NCCLS M27-A2), MIC; format: cell-based; conditions: Table 1, MICs read at 80% inhibition, 35° C., 48 to 72 hours, tested 0.12 to 64 μg/ml
Procedure: (§1) The anti-fungal activity of the compounds according to the invention were evaluated against Candida albicans (ATCC90028), Cryptococcus neoformans (ATCC32045), and Aspergillus fumigatus (ATCC13073) according to NCCLS guidelines (NCCLS reference method for broth dilution anti-fungal susceptibility testing of yeasts; approved standard-second edition, M27-A2, National Committee for Clinical Laboratory Standards, Villanova, Pa. 2003; and NCCLS reference method for broth dilution anti-fungal susceptibility testing of filamentous fungi; approved standard, M38-A, National Committee for Clinical Laboratory Standards, Villanova, Pa. 2002).
(§2) The medium required for the evaluation of anti-fungal activity was prepared as follows. RPMI 1640 broth+MOPS, pH adjusted and filter sterilized. Sabouraud Dextrose Agar (SDA) plates were used for growing fungi.
(§3) All test or candidate compounds were prepared as 5 mg/ml stock solutions in DMSO and further diluted according to the NCCLS guidelines with sterile water or appropriate diluent. A working stock of 256 μg/ml was used to prepare 1:2 serial dilutions in 96-well plates.
(§4) The inoculums of fungi were prepared by making a direct sterile water suspension of colonies/spores from SDA plates. 0.1% Tween 20 was used for A. fumigatus for better dispersal of spores in suspension. For C. albicans and C. neoformans overnight cultures were used. A. fumigatus required longer incubation. Each fungal suspension was adjusted to read between 70 and 75% transmittance at 530 nm (0.5 McFarland Standard). These suspensions were further diluted 1/1000 in appropriate broth for inoculating the 96-well plates.
(§5) All plates were incubated at 35° C. for the following times: 18 hours to 24 hours for C. albicans, 48 hours for A. fumigatus, and 48 to 72 hours for C. neoformans.

[2] = system: Candida albicans (ATCC90028); experiment: as above; format: cell-based; conditions: for MIC: Candida albicans
Procedure: as §1, §2, §3, §4, §5

[3] = system: Aspergillus fumigatus (ATCC13073); experiment: Broth dilution anti-fungal susceptibility of filamentous fungi (NCCLS M38-A), MIC; format: cell-based; conditions: Table 1, MICs read at 80% inhibition, 35° C., 48 hours, tested 0.12 to 64 μg/ml
Procedure: as §1, §2, §3, §4, §5

Candida krusei ATCC6258 = experiment: Broth dilution anti-fungal susceptibility, MIC (as in Example 24); format: cell-based; conditions: for MIC: Pichia kudriavzevii, ATCC6258, read-out: MIC C. krusei
[4] = ATCC90028, Table 1, MICs read at 80% inhibition, 35° C., 18 to 24 hours, tested 0.12 to 64 μg/ml
[5] = Table 3 (Example 26), MICs read at 80% inhibition, 0.12 to 64 μg/ml
[6] = ATCC90028, Table 3 (Example 26, additional testing), MICs read at 80% inhibition, 0.12 to 64 μg/ml, read-out: MIC C. albicans
[7] = comparison in words, from Table 3

Row | Structure (SMILES) | % BL (brine shrimp lethality) (brine shrimp) [%] | MIC [1] [µg/mL] | MIC [2, 4] [µg/mL] | MIC [3] [µg/mL] | MIC C. albicans ([2]; Table 3 (Example 26, additional testing), MICs read at 80% inhibition, 0.12 to 64 μg/ml) [µg/mL] | MIC C. krusei (Candida krusei ATCC6258; [5]) [µg/mL] | MIC [2, 6] [µg/mL] | MIC (Candida krusei ATCC6258; [5]) [µg/mL] | toxicity on brine shrimp compared to chlorogenic acid (brine shrimp; comparison in words, from Table 2) | inhibitory activity against C. albicans compared to chlorogenic acid [2, 7] | inhibitory activity against C. krusei compared to chlorogenic acid (Candida krusei ATCC6258; [7])
1 | CCCCCCCCOc1ccc(NC(=O)C(CCCN)NC(=O)C2(O)CC(O)C(O)C(OC(=O)C(N)CCc3ccc(O)cc3)C2)cc1 (centres unmarked) [Compound 23] | 73.7 | 2 (≈ 2.91 µM) | 64 (≈ 93.2 µM) | > 64 |  |  |  |  |  |  | 
2 | OC(Cn1cncn1)(Cn1cncn1)c1ccc(F)cc1F [Fluconazole, reference compound] |  | 0.5 (≈ 1.63 µM) | 0.25 (≈ 0.816 µM) | > 64 |  |  |  |  |  |  | 
3 | CCCCCCCCOc1ccc(NC(=O)C(CCCNC(=O)OC(C)(C)C)NC(=O)C2(O)CC(OC(=O)C(CCc3ccc(O)cc3)NC(=O)OCC3c4ccccc4-c4ccccc43)C3OC(C)(C)OC3C2)cc1 (centres unmarked) [Compound 20] | 10.5 | > 64 | > 64 | > 64 |  |  |  |  |  |  | 
4 | CCCCCCCCOc1ccc(NC(=O)C(CC(=O)O)NC(=O)C2(O)CC(O)C(O)C(OC(=O)/C=C/c3ccc(O)c(O)c3)C2)cc1 (centres unmarked) [Compound 13] | 6.3 | 16 (≈ 23.8 µM) | 64 (≈ 95.1 µM) | > 64 |  |  |  |  |  |  | 
5 | CCCCCCCCOc1ccc(NC(=O)C(NC(=O)C2(O)CC(OC(=O)/C=C/c3ccc(O)c(O)c3)C3OC(C)(C)OC3C2)C(C)OC(C)(C)C)cc1 (centres unmarked) [Compound 4] | 6.2 | 4 (≈ 5.3 µM) | 32 (≈ 42.4 µM) | > 64 |  |  |  |  |  |  | 
6 | CCCCCCCCOc1ccc(NC(=O)C(COC(C)(C)C)NC(=O)C2(O)CC(O)C(O)C(OC(=O)/C=C/c3ccc(O)c(O)c3)C2)cc1 (centres unmarked) [Compound 7] | 31.1 | 2 (≈ 2.85 µM) | 4 (≈ 5.71 µM) | > 64 |  |  |  |  |  |  | 
7 | CCCCCCCCOc1ccc(NC(=O)C(CCCN)NC(=O)C2(O)CC(O)C(O)C(OC(=O)/C=C/c3ccc(O)cc3)C2)cc1 (centres unmarked) [Compound 19] | 100 | 4 (≈ 6.1 µM) | 8 (≈ 12.2 µM) | 32 (≈ 48.8 µM) |  |  |  |  |  |  | 
8 | CCCCCCCCOc1ccc(NC(=O)C(COC(C)(C)C)NC(=O)C2(O)CC(OC(=O)/C=C/c3ccc(O)c(O)c3)C3OC(C)(C)OC3C2)cc1 (centres unmarked) [Compound 3] | 31.3 | 2 (≈ 2.7 µM) | 32 (≈ 43.2 µM) | > 64 |  |  |  |  |  |  | 
9 | CCCCCCCCOc1ccc(NC(=O)C(CO)NC(=O)C2(O)CC(O)C(O)C(OC(=O)/C=C/c3ccc(O)c(O)c3)C2)cc1 (centres unmarked) [Compound 11] | 18.8 | 4 (≈ 6.2 µM) | > 64 | > 64 |  |  |  |  |  |  | 
10 | C[C@@H]1[C@H](O)[C@@H](C)/C=C/C=C/C=C/C=C/C=C/C=C/C=C/[C@H](O[C@@H]2O[C@H](C)[C@@H](O)[C@H](N)[C@@H]2O)C[C@@H]2O[C@](O)(C[C@@H](O)C[C@@H](O)[C@H](O)CC[C@@H](O)C[C@@H](O)CC(=O)O[C@H]1C)C[C@H](O)[C@H]2C(=O)O [Amphotericin B, reference compound] |  |  |  |  | 0.5 (≈ 0.541 µM) | 1 (≈ 1.08 µM) |  |  |  |  | 
11 | O=C(/C=C/c1ccc(O)c(O)c1)O[C@@H]1C[C@](O)(C(=O)O)C[C@@H](O)[C@H]1O [Chlorogenic acid] | 100 |  |  |  |  |  | > 64 | > 64 |  |  | 
12 | CCCCCCCCOc1ccc(NC(=O)C(NC(=O)C2(O)CC(O)C(O)C(OC(=O)/C=C/c3ccc(O)c(O)c3)C2)C(C)OC(C)(C)C)cc1 (centres unmarked) [Compound 8] | 50.0 | 1 (≈ 1.4 µM) | 2 (≈ 2.8 µM) | > 64 |  |  | 4 (≈ 5.6 µM) | 2 (≈ 2.8 µM) | less toxicity | more potent inhibitory activity | more potent inhibitory activity
13 | CCCCCCCCOc1ccc(NC(=O)C(CCCNC(=O)OC(C)(C)C)NC(=O)C2(O)CC(OC(=O)/C=C/c3ccc(O)cc3)C3OC(C)(C)OC3C2)cc1 (centres unmarked) [Compound 17] | 0.0 | > 64 | > 64 | > 64 |  |  |  |  |  |  | 
14 | CCCCCCCCOc1ccc(NC(=O)C(CC(=O)OC(C)(C)C)NC(=O)C2(O)CC(OC(=O)/C=C/c3ccc(O)c(O)c3)C3OC(C)(C)OC3C2)cc1 (centres unmarked) [Compound 5] | 56.2 | 2 (≈ 2.6 µM) | > 64 | > 64 |  |  |  |  |  |  | 
15 | CCCCCCCCOc1ccc(NC(=O)C(CCCNC(=O)OC(C)(C)C)NC(=O)C2(O)CC(O)C(O)C(OC(=O)CCc3ccc(O)c(O)c3)C2)cc1 (centres unmarked) [Compound 15] | 21.1 | 4 (≈ 5.17 µM) | > 64 | > 64 |  |  |  |  |  |  | 
16 | CCCCCCCCOc1ccc(NC(=O)C(CCCNC(=O)OC(C)(C)C)NC(=O)C2(O)CC(O)C(O)C(OC(=O)/C=C/c3ccc(O)cc3)C2)cc1 (centres unmarked) [Compound 18] | 31.6 | > 64 | > 64 | > 64 |  |  |  |  |  |  | 
17 | CCCCCCCCOc1ccc(NC(=O)C(CCCNC(=O)OC(C)(C)C)NC(=O)C2(O)CC(O)C(O)C(OC(=O)/C=C/c3ccc(O)c(O)c3)C2)cc1 (centres unmarked) [Compound 10] | 25.0 | 1 (≈ 1.3 µM) | 2 (≈ 2.59 µM) | > 64 |  |  |  |  |  |  | 
18 | CCCCCCCCOc1ccc(NC(=O)C(CC(=O)OC(C)(C)C)NC(=O)C2(O)CC(O)C(O)C(OC(=O)/C=C/c3ccc(O)c(O)c3)C2)cc1 (centres unmarked) [Compound 9] | 37.5 | 2 (≈ 2.74 µM) | 2 (≈ 2.74 µM) | > 64 |  |  |  |  |  |  | 
19 | CCCCCCCCOc1ccc(NC(=O)C(CCCN)NC(=O)C2(O)CC(O)C(O)C(OC(=O)CCc3ccc(O)c(O)c3)C2)cc1 (centres unmarked) [Compound 16] | 10.5 | 8 (≈ 11.9 µM) | 16 (≈ 23.7 µM) | 64 (≈ 95 µM) |  |  |  |  |  |  | 
20 | CCCCCCCCOc1ccc(NC(=O)C(CCCNC(=O)OC(C)(C)C)NC(=O)C2(O)CC(OC(=O)C(N)CCc3ccc(O)cc3)C3OC(C)(C)OC3C2)cc1 (centres unmarked) [Compound 21] | 47.7 | > 64 | > 64 | > 64 |  |  |  |  |  |  | 
21 | CCCCCCCCOc1ccc(NC(=O)C(CCCNC(=O)OC(C)(C)C)NC(=O)C2(O)CC(O)C(O)C(OC(=O)C(N)CCc3ccc(O)cc3)C2)cc1 (centres unmarked) [Compound 22] | 36.8 | 4 (≈ 5.08 µM) | > 64 | > 64 |  |  |  |  |  |  | 
22 | CCCCCCCCOc1ccc(NC(=O)C(CCCN)NC(=O)C2(O)CC(O)C(O)C(OC(=O)/C=C/c3ccc(O)c(O)c3)C2)cc1 (centres unmarked) [Compound 14] | 37.5 | 1 (≈ 1.49 µM) | 4 (≈ 5.95 µM) | 16 (≈ 23.8 µM) |  |  |  |  |  |  | 
23 | CCCCCCCCOc1ccc(NC(=O)C(CCCNC(=O)OC(C)(C)C)NC(=O)C2(O)CC(OC(=O)/C=C/c3ccc(O)c(O)c3)C3OC(C)(C)OC3C2)cc1 (centres unmarked) [Compound 6] | 12.5 | 2 (≈ 2.46 µM) | > 64 | > 64 |  |  |  |  |  |  | 
24 | CCCCCCCCOc1ccc(NC(=O)C2(O)CC(OC(=O)/C=C/c3ccc(O)c(O)c3)C3OC(C)(C)OC3C2)cc1 (centres unmarked) [Compound 1] | 100.0 | 2 (≈ 3.35 µM) | 16 (≈ 26.8 µM) | > 64 |  |  |  |  |  |  | 
25 | CCCCCCCCOc1ccc(NC(=O)C2(O)CC(O)C(O)C(OC(=O)/C=C/c3ccc(O)c(O)c3)C2)cc1 (centres unmarked) [Compound 2] | 50.0 | 2 (≈ 3.59 µM) | 8 (≈ 14.3 µM) | > 64 |  |  |  |  |  |  | 

From patent US20100311827A1, “Chlorogenic acid derivatives and their use as anti-fungal agents” (priority 2006, published 2010)
